Laboratory results: patent publication US20240156825A1, “USE OF SELECTIVE VEGFR2 AND FGFR1 INHIBITORS” (Fountain Therapeutics Inc., priority 2022, published 2024)
Where two headings read alike, the source gives them in different places.

Assays:
VEGFR2 and FGFR1 = test: Selection of compounds that selectively inhibit both VEGFR2 and FGFR1 (average relative IC50); format: biochemical
VEGFR2 [1] = target: T1, VEGFR2 (Homo sapiens, UniProt P35968); conditions: relative IC50: reported IC50 toward VEGFR2 divided by next lowest reported IC50 to any gene target
T1 sequence (P35968 20-1356, species assumed): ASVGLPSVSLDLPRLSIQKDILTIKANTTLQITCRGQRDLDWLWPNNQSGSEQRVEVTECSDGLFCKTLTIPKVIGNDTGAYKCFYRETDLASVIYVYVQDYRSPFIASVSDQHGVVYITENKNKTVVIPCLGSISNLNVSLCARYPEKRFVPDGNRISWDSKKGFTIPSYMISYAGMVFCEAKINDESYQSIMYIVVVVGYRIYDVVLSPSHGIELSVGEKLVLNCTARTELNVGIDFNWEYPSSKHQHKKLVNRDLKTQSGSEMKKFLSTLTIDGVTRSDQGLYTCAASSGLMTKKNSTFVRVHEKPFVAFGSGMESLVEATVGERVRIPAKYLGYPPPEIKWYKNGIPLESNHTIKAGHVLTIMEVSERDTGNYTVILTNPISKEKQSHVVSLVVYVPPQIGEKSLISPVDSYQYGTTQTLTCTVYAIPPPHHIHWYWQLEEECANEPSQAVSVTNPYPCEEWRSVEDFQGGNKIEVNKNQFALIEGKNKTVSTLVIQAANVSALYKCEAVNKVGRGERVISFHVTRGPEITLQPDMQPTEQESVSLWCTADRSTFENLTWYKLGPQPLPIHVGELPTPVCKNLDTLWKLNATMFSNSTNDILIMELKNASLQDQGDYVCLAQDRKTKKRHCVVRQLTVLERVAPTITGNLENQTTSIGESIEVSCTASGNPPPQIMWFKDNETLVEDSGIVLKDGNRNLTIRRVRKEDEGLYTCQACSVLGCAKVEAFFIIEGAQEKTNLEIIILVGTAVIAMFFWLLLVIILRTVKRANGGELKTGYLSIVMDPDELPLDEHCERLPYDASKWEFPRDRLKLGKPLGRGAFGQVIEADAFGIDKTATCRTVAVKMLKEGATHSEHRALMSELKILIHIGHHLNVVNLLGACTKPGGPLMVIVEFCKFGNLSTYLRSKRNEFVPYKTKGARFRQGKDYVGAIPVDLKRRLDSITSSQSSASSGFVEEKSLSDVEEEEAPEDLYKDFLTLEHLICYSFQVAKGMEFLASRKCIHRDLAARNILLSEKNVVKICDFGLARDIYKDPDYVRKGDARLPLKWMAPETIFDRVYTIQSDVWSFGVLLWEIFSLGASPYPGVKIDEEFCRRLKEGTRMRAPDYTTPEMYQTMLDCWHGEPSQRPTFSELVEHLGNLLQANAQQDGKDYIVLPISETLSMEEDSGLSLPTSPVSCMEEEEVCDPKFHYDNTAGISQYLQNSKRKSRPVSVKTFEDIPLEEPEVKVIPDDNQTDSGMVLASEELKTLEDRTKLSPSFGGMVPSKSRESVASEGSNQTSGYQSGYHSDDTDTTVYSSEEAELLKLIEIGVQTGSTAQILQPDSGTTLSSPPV

any gene target = conditions: cited from earlier work
VEGFR2 [2] = target: T1, VEGFR2; conditions: reported IC50 to VEGFR2; Table 3, selective inhibitors of VEGFR2; read-out: VEGFR2 IC50_μM; cited from earlier work
[3] = average of VEGFR2 and FGFR1 relative IC50
[4] = lowest reported IC50 to any gene target, read-out: Min IC50_μM
[5] = lowest reported IC50 to any gene target, read-out: min IC50
[6] = next lowest IC50 value to any gene target, Table 3, read-out: Min IC50_μM

Row | VEGFR2, rIC50 (VEGFR2 [1]) | SMILES | avg rIC50 (VEGFR2 and FGFR1; [3]) | other results
1 | – | COc1cc(OC)cc(-c2cc3cnc(NCCCN4CCOCC4)cc3nc2NC(=O)NC(C)(C)C)c1 [compound 5329004, 1,6-Naphthyridine deriv. 20, reference compound] | 5.0 | –
2 | – | COc1cc(OC)cc(-c2cc3cnc(NCCCN4CCN(C)CC4)cc3nc2NC(=O)NC(C)(C)C)c1 [compound 5330127, 1,6-Naphthyridine 17, reference compound] | 3.0 | –
3 | – | CCN(CC)CCCNc1cc2nc(NC(=O)NC(C)(C)C)c(-c3cc(OC)cc(OC)c3)cc2cn1 [compound 5330128, 1,6-Naphthyridine 18, reference compound] | 4.3 | –
4 | – | COc1cc(OC)cc(-c2cc3cnc(NCCCCN4CCOCC4)cc3nc2NC(=O)NC(C)(C)C)c1 [compound 5330129, 1,6-Naphthyridine 19, reference compound] | 1.5 | –
5 | – | COc1cc(OC)cc(-c2cc3cnc(NCCCCN4CCN(C)CC4)cc3nc2NC(=O)NC(C)(C)C)c1 [compound 5330130, reference compound] | 4.3 | IC50 (any gene target; [4]): 0.4 nM
6 | – | COc1cc(OC)cc(-c2cc3cnc(NCCCCCN4CCN(C)CC4)cc3nc2NC(=O)NC(C)(C)C)c1 [compound 5330135, 1,6-Naphthyridine 25, reference compound] | 1.8 | IC50 (any gene target; [4]): 3 nM; IC50 (any gene target; [5]): 3 nM
7 | – | COc1cc(OC)cc(-c2cc3cnc(NCCCO)cc3nc2NC(=O)NC(C)(C)C)c1 [compound 5330157, 1,6-Naphthyridine 75, reference compound] | 1.4 | –
8 | – | COc1cc(OC)cc(-c2cc3cnc(NCCCCCO)cc3nc2NC(=O)NC(C)(C)C)c1 [compound 5330159, 1,6-Naphthyridine 77, reference compound] | 1.5 | –
9 | – | CCNC(=O)Nc1nc2nc(NCCCN3CCN(C)CC3)ncc2cc1-c1cc(OC)cc(OC)c1 [compound 5330166, Pyrido[2,3-d]pyrimidine 102, reference compound] | 2.6 | –
10 | – | COc1cc(OC)cc(-c2cc3cnc(NCCCN4CCN(C)CC4)nc3nc2NC(=O)NC(C)(C)C)c1 [compound 5330167, Pyrido[2,3-d]pyrimidine 103, reference compound] | 2.3 | –
11 | – | CCNC(=O)Nc1nc2nc(NCCCCN(CC)CC)ncc2cc1-c1cc(OC)cc(OC)c1 [compound 5330168, Pyrido[2,3-d]pyrimidine 104, reference compound] | 3.4 | –
12 | – | COc1cc(OC)cc(-c2cc3cnc(NCCCO)nc3nc2NC(=O)NC(C)(C)C)c1 [compound 5330169, Pyrido[2,3-d]pyrimidine 105, reference compound] | 2.3 | –
13 | 1.0 | CONC(=O)c1cc(Nc2ncnn3cc(-c4ncc(C)o4)c(C(C)C)c23)c(F)cc1F [compound 10388612, 2,4-Difluoro-5-[5-isopropyl-6-(5-methyl-oxazol-2-yl)-pyrrolo[2,1-f][1,2,4]triazin-4-ylamino]-N-methoxy-benzamide, reference compound] | – | IC50 (VEGFR2 [2]): 1.1 nM; IC50 (any gene target; [5]): 1 nM; IC50 (any gene target; [6]): 1.1 nM
14 | 1.0 | CONC(=O)c1cc(Nc2ncnn3cc(-c4nnc(CC5CC5)o4)c(C(C)C)c23)c(F)cc1F [compound 11155938, 5-[6-(5-Cyclopropylmethyl-[1,3,4]oxadiazol-2-yl)-5-isopropyl-pyrrolo[2,1-f][1,2,4]triazin-4-ylamino]-2,4-difluoro-N-methoxy-benzamide, reference compound] | – | IC50 (VEGFR2 [2]): 4 nM; IC50 (any gene target; [5]): 4 nM; IC50 (any gene target; [6]): 4 nM
15 | 1.0 | CONC(=O)c1cc(Nc2ncnn3cc(-c4nc(C)no4)c(C(C)C)c23)c(F)cc1F [compound 11419379, 2,4-Difluoro-5-[5-isopropyl-6-(3-methyl-[1,2,4]oxadiazol-5-yl)-pyrrolo[2,1-f][1,2,4]triazin-4-ylamino]-N-methoxy-benzamide, reference compound] | – | IC50 (VEGFR2 [2]): 6.8 nM; IC50 (any gene target; [5]): 7 nM; IC50 (any gene target; [6]): 6.8 nM
16 | 1.0 | CONC(=O)c1cc(Nc2ncnn3cc(-c4nnc(C5CC5)o4)c(C(C)C)c23)c(F)cc1F [compound 11465545, 5-[6-(5-Cyclopropyl-[1,3,4]oxadiazol-2-yl)-5-isopropyl-pyrrolo[2,1-f][1,2,4]triazin-4-ylamino]-2,4-difluoro-N-methoxy-benzamide, reference compound] | – | IC50 (VEGFR2 [2]): 3.6 nM; IC50 (any gene target; [5]): 4 nM; IC50 (any gene target; [6]): 3.6 nM
17 | – | CCN1CCC(Nc2ccc3c(c2)/C(=C(\c2cccc(F)c2)c2nc(C)c[nH]2)C(=O)N3)CC1 [compound 67163677, XL999; XL-999; XL 999, reference compound] | 2.0 | IC50 (any gene target; [5]): 2 nM
18 | – | CNC(=O)c1cc(F)cc(N(CCNC(C)C)c2ccc3ncc(-c4cnn(C)c4)nc3c2)c1 [compound 68209105, reference compound] | 2.8 | IC50 (any gene target; Table 2, lowest reported IC50 to any gene target, read-out: Min IC50_μM): 3.16 nM; IC50 (any gene target; [5]): 2 nM
19 | 5.6 | Nc1c(C(=O)c2cc3cc(CN4CCOCC4)ccc3[nH]2)cnn1-c1cc(O)ccc1Cl [compound 134156584, [5-Amino-1-(2-chloro-5-hydroxyphenyl)pyrazol-4-yl]-[5-(morpholin-4-ylmethyl)-1H-indol-2-yl]methanone] | – | –
20 | 2.0 | CCN1CCC(Nc2ccc3[nH]c(O)c(C(=C4N=c5ccccc5=N4)c4ccccc4)c3c2)CC1 [compound 135405015, 3-[Benzimidazol-2-ylidene(phenyl)methyl]-5-[(1-ethylpiperidin-4-yl)amino]-1H-indol-2-ol] | – | –
21 | 3.0 | COC(=O)c1ccc2c(c1)NC(=O)/C2=C(\Nc1ccc(N(CCCN(C)C)C(C)=O)cc1)c1ccccc1 [compound 135405065] | – | –
22 | 2.2 | COC(=O)c1ccc2c(C(=Nc3ccc(C(=O)N(C)CCN(C)C)cc3)c3ccccc3)c(O)[nH]c2c1 [compound 135452890, Methyl 3-[N-[4-[2-(dimethylamino)ethyl-methylcarbamoyl]phenyl]-C-phenylcarbonimidoyl]-2-hydroxy-1H-indole-6-carboxylate] | – | –
23 | 1.3 | COC(=O)c1ccc2c(c1)NC(=O)/C2=C(\Nc1ccc(N(CC(=O)N(C)C)C(C)=O)cc1)c1ccccc1 [compound 135456052, Methyl (3Z)-3-[[4-[acetyl-[2-(dimethylamino)-2-oxoethyl]amino]anilino]-phenylmethylidene]-2-oxo-1H-indole-6-carboxylate] | – | –
24 | 2.3 | COC(=O)c1ccc2c(c1)NC(=O)/C2=C(\Nc1ccc(N(CCN(C)C)S(C)(=O)=O)cc1)c1ccccc1 [compound 135456078, Methyl (3Z)-3-[[4-[2-(dimethylamino)ethyl-methylsulfonylamino]anilino]-phenylmethylidene]-2-oxo-1H-indole-6-carboxylate] | – | –
25 | 0.6 | CCN1CCC(Nc2ccc3[nH]c(O)c(C(=C4N=c5ccccc5=N4)c4cccc(F)c4)c3c2)CC1 [compound 135488014, 3-[Benzimidazol-2-ylidene-(3-fluorophenyl)methyl]-5-[(1-ethylpiperidin-4-yl)amino]-1H-indol-2-ol] | – | –
26 | 1.6 | CCN1CCC(Nc2ccc3[nH]c(O)c(C(=C4N=c5ccccc5=N4)c4ccc(C)cc4)c3c2)CC1 [compound 135507297, 3-[Benzimidazol-2-ylidene-(4-methylphenyl)methyl]-5-[(1-ethylpiperidin-4-yl)amino]-1H-indol-2-ol] | – | –
27 | 2.3 | COC(=O)c1ccc2c(c1)NC(=O)C2=C(Nc1ccc(CN(C)C)cc1)c1ccccc1 [compound 135522918, Methyl 3-[[4-[(dimethylamino)methyl]anilino]-phenylmethylidene]-2-oxo-1H-indole-6-carboxylate] | – | –
28 | 2.4 | COC(=O)c1ccc2c(c1)NC(=O)/C2=C(\Nc1ccc(N(CCN(C)C)C(C)=O)cc1)c1ccccc1 [compound 135528963, Methyl (3Z)-3-[[4-[acetyl-[2-(dimethylamino)ethyl]amino]anilino]-phenylmethylidene]-2-oxo-1H-indole-6-carboxylate] | – | –
29 | 0.7 | CCN1CCC(Nc2ccc3[nH]c(O)c(C(=C4N=c5ccccc5=N4)c4cc(F)cc(F)c4)c3c2)CC1 [compound 135546228, 3-[Benzimidazol-2-ylidene-(3,5-difluorophenyl)methyl]-5-[(1-ethylpiperidin-4-yl)amino]-1H-indol-2-ol] | – | –

Row | SMILES | VEGFR2, rIC50 (VEGFR2 [1]) | avg rIC50 (VEGFR2 and FGFR1; [3]) | other results
30 | Oc1cc2c(cc1O)C1c3ccc(O)c(O)c3OCC1(O)C2 (stereo not shown) [compound 442514, Haematoxylin] | 9.5 | – | avg rIC50 (VEGFR2 and FGFR1): 5.5
31 | COc1ccc(N2Cc3cnc(Nc4ccc(F)cc4)nc3N([C@@H]3CC[C@@H](O)C3)C2=O)cc1 [compound 11396738, 7-(4-Fluoroanilino)-1-[(1R,3R)-3-hydroxycyclopentyl]-3-(4-methoxyphenyl)-4H-pyrimido[4,5-d]pyrimidin-2-one, reference compound] | 0.6 | – | avg rIC50 (VEGFR2 and FGFR1): 1.2; IC50 (any gene target; read-out: Min IC50_μM): 83 nM; IC50 (any gene target; read-out: min IC50): 83 nM
32 | Oc1ccc(C[C@@]2(O)COc3c(ccc(O)c3O)[C@H]2O)cc1O [compound 24949852, Epihematoxylol] | 5.8 | – | avg rIC50 (VEGFR2 and FGFR1): 3.7
33 | COC(=O)c1ccc2c(c1)NC(=O)/C2=C(\Nc1ccc(CN2CCCCC2)cc1)c1ccccc1 [compound 135476706, Methyl (3Z)-2-oxo-3-[phenyl-[4-(piperidin-1-ylmethyl)anilino]methylidene]-1H-indole-6-carboxylate] | 1.1 | – | avg rIC50 (VEGFR2 and FGFR1): 1.7; IC50 (any gene target; read-out: min IC50): 32 nM
